One assay has as its system nucleus accumbens. The experiment in a line: Locomotor activity after intra-accumbens amphetamine. In kind it is in vivo, rat (male Sprague Dawley (CD) Bradford). The conditions noted are these: bilateral injection 20 μg into nucleus accumbens. The method, then: The compounds of the instant invention are useful as antipsychotic agents. Compounds are tested for their ability to reduce the effects of intra-accumbens amphetamine in the rat as described hereinafter.
Male Sprague Dawley (CD) Bradford strain rats are used. The rats are housed in groups of five at a temperature of 21°±2° C. on a 12 hour light-dark cycle of lights-on between 07 hours 00 minutes and 20 hours 00 minutes. Rats are fed CRM diet (Labsure) and allowed water ad libitum.
Rats are anesthetized with chloral hydrate (400 mg/kg SC) and placed in a Kopf stereotaxic frame. Chronically indwelling guide cannulae (constructedof stainless steel tubing 0.65 mm diameter held bilaterally in Parspex holders) are implanted using standard stereotaxic techniques to terminate 3.5 mm above the center of the nucleus accumbens (Ant. 0.4, Vert. 0.0, Lat. 1.6) or 5.0 mm above the central nucleus of the amygdala (Ant. 5.8, Vet. -1.8, Lat. ±4.5) (Atlas of De Groot, 1959). […]
Behavioral experiments are conducted between 07 hours 30 minutes and 21 hours 30 minutes in a quiet room maintained at 22°±2° C. […] Interruptions of the light beam are recorded every 5 minutes. […]
The abilities of the compounds of the invention to inhibit the hyperactivity caused by the injection of amphetamine into the nucleus accumbens of the rat is measured.

Assay [1] relates to aspirin-induced gastric damage. In words: Aspirin-induced gastric damage. The conditions noted are these: 15 mg/kg PO, p <0.001 compared with controls. In kind it is in vivo, rat. The protocol:
Aspirin-induced gastric damage is assessed in groups of 10 rats each. All animals are fasted for 24 hours before and throughout the experiment. Drug or vehicle is given 10 minutes before an oral dose of 1 mL of a 45-mg/mL suspension of aspirin in 0.5% carboxymethylcellulose (CMC). The animals are sacrificed 5 hours after aspirin administration and the stomachs removed and opened for examination. |Gastric damage is scored as follows: |1 Small hemorrhage |2 Large hemorrhage |3 Small ulcer |4 Large ulcer |5 Perforated ulcer

We go through 2 compounds from patent US5244905A, “N-substituted cycloalkyl and polycycloalkyl polyhydro-β-carboline-phenylalanine- and phenethylamine derivatives” (Warner-Lambert Company, priority 1991, dated 1993).

In the case of `CC(N)Cc1ccccc1` (stereo not drawn) [amphetamine], the locomotor activity result with nucleus accumbens is on record as “increase in locomotor activity”.

`CNC(=C[N+](=O)[O-])NCCSCc1ccc(CN(C)C)o1` [ranitidine]: the “inhibition of ulcer formation” value in assay [1] (10 minutes before aspirin) is on record as 74%. This compound also came in with a ulcer score in assay [1] (±SD, saline control 12.1±6.85) of 3.2±2.35.
